From patent US20250152585A1, “PHARMACEUTICAL COMPOUND” (Duke Street Bio Limited, priority 2022, published 2025)

Tests used:
[1] = molecular target: T1, N-terminally FLAG-tagged PARP2 (amino acids 1-583) (Homo sapiens, UniProt Q9UGN5); assay: PARP2 probe displacement HTRF assay; format: binding; conditions: binned Kd, PARP2 probe displacement HTRF
T1 construct: N-terminally FLAG-tagged PARP2 (amino acids 1-583)
Protocol: Data analysis was performed identical as for PARP1.

[2] = molecular target: T2, full length N-terminally FLAG-tagged PARP1 (Homo sapiens, UniProt P09874); assay: PARP1 biochemical DELFIA assay (auto-PARylation); design: recombinant full length human N-terminally FLAG-tagged PARP1; conditions: binned IC50, PARP1 biochemical DELFIA assay
[3] = molecular target: T2, full length N-terminally FLAG-tagged PARP1; assay: PARP1 probe displacement HTRF assay; conditions: for Selectivity: PARP1 over PARP2, ratio Kd (PARP2)/Kd (PARP1), probe displacement HTRF; for Kd: read-out: PARP1 HTRF, binned Kd, PARP1 probe displacement HTRF

T1 sequence (Q9UGN5 whole entry, the tested form may be a part): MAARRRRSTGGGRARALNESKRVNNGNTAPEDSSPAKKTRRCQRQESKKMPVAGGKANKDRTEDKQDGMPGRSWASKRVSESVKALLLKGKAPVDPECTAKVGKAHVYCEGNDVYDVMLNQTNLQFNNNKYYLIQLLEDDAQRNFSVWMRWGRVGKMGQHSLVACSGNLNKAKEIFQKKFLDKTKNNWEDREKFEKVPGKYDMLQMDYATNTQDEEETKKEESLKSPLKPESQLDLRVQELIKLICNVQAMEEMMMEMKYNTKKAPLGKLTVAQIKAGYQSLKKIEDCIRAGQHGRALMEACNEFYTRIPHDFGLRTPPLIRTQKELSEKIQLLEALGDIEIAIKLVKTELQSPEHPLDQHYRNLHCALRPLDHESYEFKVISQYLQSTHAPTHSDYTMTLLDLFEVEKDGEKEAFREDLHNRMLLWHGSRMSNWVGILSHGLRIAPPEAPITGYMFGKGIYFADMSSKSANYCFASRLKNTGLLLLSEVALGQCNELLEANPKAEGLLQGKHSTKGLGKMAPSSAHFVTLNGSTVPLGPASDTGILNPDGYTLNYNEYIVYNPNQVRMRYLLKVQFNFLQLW
T2 sequence (P09874 whole entry): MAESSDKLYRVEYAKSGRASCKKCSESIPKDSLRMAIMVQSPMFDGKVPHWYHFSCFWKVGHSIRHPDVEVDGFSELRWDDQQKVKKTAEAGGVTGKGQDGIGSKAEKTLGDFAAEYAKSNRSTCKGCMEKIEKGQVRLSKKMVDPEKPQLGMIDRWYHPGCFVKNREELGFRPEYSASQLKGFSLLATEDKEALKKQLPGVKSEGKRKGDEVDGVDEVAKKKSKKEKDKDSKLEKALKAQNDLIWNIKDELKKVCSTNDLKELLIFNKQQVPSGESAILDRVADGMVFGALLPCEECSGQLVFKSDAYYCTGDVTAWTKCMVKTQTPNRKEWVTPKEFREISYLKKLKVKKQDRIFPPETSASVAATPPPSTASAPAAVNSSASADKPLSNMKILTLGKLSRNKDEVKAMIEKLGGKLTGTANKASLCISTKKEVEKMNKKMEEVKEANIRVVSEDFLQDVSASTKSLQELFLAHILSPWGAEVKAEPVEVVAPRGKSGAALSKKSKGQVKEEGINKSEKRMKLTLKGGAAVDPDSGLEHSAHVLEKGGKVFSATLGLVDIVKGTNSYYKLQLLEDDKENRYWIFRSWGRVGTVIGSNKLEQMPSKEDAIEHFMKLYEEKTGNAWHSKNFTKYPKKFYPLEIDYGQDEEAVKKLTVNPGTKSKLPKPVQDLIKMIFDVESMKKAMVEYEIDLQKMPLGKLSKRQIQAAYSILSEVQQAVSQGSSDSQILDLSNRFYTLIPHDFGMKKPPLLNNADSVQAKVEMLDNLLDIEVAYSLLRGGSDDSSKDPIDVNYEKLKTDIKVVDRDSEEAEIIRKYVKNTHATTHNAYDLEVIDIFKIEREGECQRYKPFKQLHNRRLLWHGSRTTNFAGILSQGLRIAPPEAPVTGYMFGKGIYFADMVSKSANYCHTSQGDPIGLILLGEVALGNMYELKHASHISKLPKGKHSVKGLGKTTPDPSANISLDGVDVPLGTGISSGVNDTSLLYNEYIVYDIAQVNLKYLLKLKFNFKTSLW

| SMILES | Kd [1] [nM] | IC50 [2] [nM] | Selectivity [3] | Kd [3] [nM] |
| --- | --- | --- | --- | --- |
| CNC(=O)c1cnc(N2CCC(N3CCC(c4nc5ccccc5c(=O)[nH]4)C3)CC2)cn1 (single isomer, unassigned) [Compound 96b] | 100 to 1000 | 100 to 1000 | − (− indicates a value of less than 10) | 100 to 1000 |
| CNC(=O)c1ccc(N2CCC(N3CCC(c4nc(C)cc(=O)[nH]4)C3)CC2)cn1 (single isomer, unassigned) [Compound 97a] | > 10000 | > 10000 | − (− indicates a value of less than 10) | > 10000 |
| CNC(=O)c1ccc(N2CCC(N3CCC(c4nc(C)cc(=O)[nH]4)C3)CC2)cn1 (single isomer, unassigned) [Compound 97b] | > 10000 | 100 to 1000 | − (− indicates a value of less than 10) | 100 to 1000 |
| CNC(=O)c1ccc(N2CCC(N3CCCC(c4nc5ncccc5c(=O)[nH]4)C3)CC2)cn1 (single isomer, unassigned) [Compound 98a] | > 10000 | 10 to 100 | +++ (+++ indicate a value of at least 100) | 10 to 100 |
| CNC(=O)c1ccc(N2CCC(N3CCCC(c4nc5ncccc5c(=O)[nH]4)C3)CC2)cn1 (single isomer, unassigned) [Compound 98b] | > 10000 | 100 to 1000 | + (+ indicates a value of 10 to less than 50) | 100 to 1000 |
| CNC(=O)c1cnc(N2CCC(N3CCCC(c4nc5ccccc5c(=O)[nH]4)C3)CC2)cn1 (single isomer, unassigned) [Compound 99a] | > 10000 | 1000 to 10000 | − (− indicates a value of less than 10) | 1000 to 10000 |
| CNC(=O)c1cnc(N2CCC(N3CCCC(c4nc5ccccc5c(=O)[nH]4)C3)CC2)cn1 (single isomer, unassigned) [Compound 99b] | 100 to 1000 | 10 to 100 | − (− indicates a value of less than 10) | 100 to 1000 |
| CNC(=O)c1ccc(N2CCC(N3CCCC(c4cc5ccccc5c(=O)[nH]4)C3)CC2)cn1 (single isomer, unassigned) [Compound 100a] | 100 to 1000 | < 10 | +++ (+++ indicate a value of at least 100) | < 10 |
| CNC(=O)c1ccc(N2CCC(N3CCCC(c4cc5ccccc5c(=O)[nH]4)C3)CC2)cn1 (single isomer, unassigned) [Compound 100b] | 1000 to 10000 | 10 to 100 | +++ (+++ indicate a value of at least 100) | 10 to 100 |
| CNC(=O)c1ccc(N2CCC(N3CCC(c4nc5cccc(F)c5c(=O)[nH]4)C3)CC2)cn1 (single isomer, unassigned) [Compound 101a] | 100 to 1000 | 10 to 100 | + (+ indicates a value of 10 to less than 50) | 10 to 100 |
| CNC(=O)c1ccc(N2CCC(N3CCC(c4nc5cccc(F)c5c(=O)[nH]4)C3)CC2)cn1 (single isomer, unassigned) [Compound 101b] | 100 to 1000 | < 10 | +++ (+++ indicate a value of at least 100) | < 10 |
| CNC(=O)c1ccc(N2CCC(N3CCCC(c4nc5cnccc5c(=O)[nH]4)C3)CC2)cn1 (single isomer, unassigned) [Compound 106a] | > 10000 | 100 to 1000 | + (+ indicates a value of 10 to less than 50) | 100 to 1000 |
| CNC(=O)c1ccc(N2CCC(N3CCCC(c4nc5cnccc5c(=O)[nH]4)C3)CC2)cn1 (single isomer, unassigned) [Compound 106b] | > 10000 | 1000 to 10000 | − (− indicates a value of less than 10) | > 10000 |
| O=c1[nH]c(C2CCN(C3CCN(c4ccc(F)cc4F)CC3)C2)nc2ccccc12 (single isomer, unassigned) [Compound 107a] | 1000 to 10000 | 10 to 100 | + (+ indicates a value of 10 to less than 50) | 10 to 100 |
| O=c1[nH]c(C2CCN(C3CCN(c4ccc(F)cc4F)CC3)C2)nc2ccccc12 (single isomer, unassigned) [Compound 107b] | 100 to 1000 | 100 to 1000 | − (− indicates a value of less than 10) | 100 to 1000 |
| CNC(=O)c1ccc(N2CCC(N3CCCC(c4nc5cc(F)ccc5c(=O)[nH]4)C3)CC2)cn1 (single isomer, unassigned) [Compound 108a] | > 10000 | 100 to 1000 | − (− indicates a value of less than 10) | 100 to 1000 |
| CNC(=O)c1ccc(N2CCC(N3CCCC(c4nc5cc(F)ccc5c(=O)[nH]4)C3)CC2)cn1 (single isomer, unassigned) [Compound 108b] | > 10000 | 100 to 1000 | + (+ indicates a value of 10 to less than 50) | 100 to 1000 |

| SMILES | Kd [1] [nM] | IC50 [2] [nM] | Selectivity [3] | Kd [3] [nM] |
| --- | --- | --- | --- | --- |
| NC(=O)c1ccc(N2CCC(N3CCCC(c4nc5ccccc5c(=O)[nH]4)C3)CC2)cn1 (single isomer, unassigned) [Compound 109a] | > 10000 | 10 to 100 | +++ (+++ indicate a value of at least 100) | < 10 |
| NC(=O)c1ccc(N2CCC(N3CCCC(c4nc5ccccc5c(=O)[nH]4)C3)CC2)cn1 (single isomer, unassigned) [Compound 109b] | 1000 to 10000 | 10 to 100 | + (+ indicates a value of 10 to less than 50) | 100 to 1000 |
| O=C(NCCF)c1ccc(N2CCC(N3CCCC(c4nc5ccccc5c(=O)[nH]4)C3)CC2)cn1 (single isomer, unassigned) [Compound 110a] | > 10000 | < 10 | +++ (+++ indicate a value of at least 100) | < 10 |
| O=C(NCCF)c1ccc(N2CCC(N3CCCC(c4nc5ccccc5c(=O)[nH]4)C3)CC2)cn1 (single isomer, unassigned) [Compound 110b] | 100 to 1000 | 100 to 1000 | − (− indicates a value of less than 10) | 10 to 100 |
| CCNC(=O)c1ccc(N2CCC(N3CCC(c4nc5ccccc5c(=O)[nH]4)C3)CC2)cn1 (single isomer, unassigned) [Compound 111a] | 100 to 1000 | 10 to 100 | + (+ indicates a value of 10 to less than 50) | 10 to 100 |
| CCNC(=O)c1ccc(N2CCC(N3CCC(c4nc5ccccc5c(=O)[nH]4)C3)CC2)cn1 (single isomer, unassigned) [Compound 111b] | 100 to 1000 | < 10 | +++ (+++ indicate a value of at least 100) | < 10 |
| CCc1nc(C(=O)NC)ccc1N1CCC(N2CCCC(c3nc4ccccc4c(=O)[nH]3)C2)CC1 (single isomer, unassigned) [Compound 112a] | 1000 to 10000 | 100 to 1000 | − (− indicates a value of less than 10) | 100 to 1000 |
| CCc1nc(C(=O)NC)ccc1N1CCC(N2CCCC(c3nc4ccccc4c(=O)[nH]3)C2)CC1 (single isomer, unassigned) [Compound 112b] | > 10000 | 10 to 100 | +++ (+++ indicate a value of at least 100) | 10 to 100 |
| O=c1[nH]c(C2CCCN(C3CCN(c4ccc(F)cc4F)CC3)C2)nc2ccccc12 (single isomer, unassigned) [Compound 113a] | 100 to 1000 | 100 to 1000 | − (− indicates a value of less than 10) | 100 to 1000 |
| O=c1[nH]c(C2CCCN(C3CCN(c4ccc(F)cc4F)CC3)C2)nc2ccccc12 (single isomer, unassigned) [Compound 113b] | > 10000 | 100 to 1000 | + (+ indicates a value of 10 to less than 50) | 100 to 1000 |
| CNC(=O)c1ccc(N2CCC(N3CCCC(c4nc5c(F)cccc5c(=O)[nH]4)C3)CC2)cn1 (single isomer, unassigned) [Compound 114a] | > 10000 | < 10 | +++ (+++ indicate a value of at least 100) | < 10 |
| CNC(=O)c1ccc(N2CCC(N3CCCC(c4nc5c(F)cccc5c(=O)[nH]4)C3)CC2)cn1 (single isomer, unassigned) [Compound 114b] | 1000 to 10000 | 100 to 1000 | + (+ indicates a value of 10 to less than 50) | 100 to 1000 |
| O=C(NCC(F)(F)F)c1ccc(N2CCC(N3CCCC(c4nc5ccccc5c(=O)[nH]4)C3)CC2)cn1 (single isomer, unassigned) [Compound 115a] | 1000 to 10000 | 100 to 1000 | + (+ indicates a value of 10 to less than 50) | 100 to 1000 |
| O=C(NCC(F)(F)F)c1ccc(N2CCC(N3CCCC(c4nc5ccccc5c(=O)[nH]4)C3)CC2)cn1 (single isomer, unassigned) [Compound 115b] | 1000 to 10000 | 10 to 100 | +++ (+++ indicate a value of at least 100) | 10 to 100 |
| COCCNC(=O)c1ccc(N2CCC(N3CCCC(c4nc5ccccc5c(=O)[nH]4)C3)CC2)cn1 (single isomer, unassigned) [Compound 116a] | > 10000 | 10 to 100 | +++ (+++ indicate a value of at least 100) | 10 to 100 |
| COCCNC(=O)c1ccc(N2CCC(N3CCCC(c4nc5ccccc5c(=O)[nH]4)C3)CC2)cn1 (single isomer, unassigned) [Compound 116b] | 1000 to 10000 | 100 to 1000 | − (− indicates a value of less than 10) | 100 to 1000 |
